Measurements published in patent US20240383869A1, “ARYLACETYL INHIBITORS OF TG2 AND USES THEREOF” (UNIVERSITY OF OTTAWA, priority 2021, published 2024).

Key:
Protein binding = format: in vitro ADME
[1] = Metabolic stability in human hepatocyte model; format: in vitro ADME; details: hepatocytes; for hepatocyte CLint: calculated intrinsic clearance; for half-life: read-out: Hepatocyte t½
Protocol: The metabolic stabilities of inhibitors 72 and 74 were also evaluated in a human hepatocyte model. The half-lives and calculated intrinsic clearance shown in Table 6 are indicative of moderate stability.

MDCK − MDR1 = experiment: MDCK-MDR1 permeability; format: in vitro ADME; details: for MDCK − MDR1 Papp (A→B): apical to basolateral; for MDCK − MDR1 Papp (B→A): basolateral to apical
[2] = PAMPA passive diffusion across a lipid membrane; format: in vitro ADME
Protocol: Passive diffusion across a lipid membrane was measured by PAMPA for both inhibitors 72 and 74. The values shown in Table 6 indicate both compounds were at least moderately permeant.

SCC-13 cells = experiment: ECS cell invasion through Matrigel (Transwell); format: cell-based; details: 0-100 μM inhibitor, 18 h, read-out: EC50 for inhibition of ECS invasion
Protocol: One well-known property of tumour-initiating cells associated with cancer metastasis is the enhanced ability to invade Matrigel (collagen). For example, it has been shown that epidermal cancer stem (ECS) cells invade Matrigel more efficiently than non-stem cancer cells, and that these properties are associated with enhanced tumour formation (Adhikary, G. et al., PLoS ONE 2013, 8, e84324. https://doi.org/10.1371/journal.pone.0084324). We have shown previously that ˜20 μM of NC9 and 3.9 μM of VA4 can reduce ECS cell invasion through Matrigel by ˜50% relative to vehicle-treated cells (Akbar, A. et al., J. Med. Chem. 2017, 60, 7910-7927. https://doi.org/10.1021/acs.jmedchem.7b01070; Fisher, M. L. et al., Oncotarget 2015, 6, 20525-20539. https://doi.org/10.18632/oncotarget.3890).
Materials and Methods for cell invasion data. To measure cell invasion, Matrigel (Corning, catalogue no. 354234) was diluted to 250 μg/mL and 120 μL was added to the upper chambers of a Transwell plate (Corning, no. 353097, 1-cm diameter, 8-μm pore size) and allowed to solidify. SCC-13 cells were suspended in spheroid medium (Fisher, M. L. et al., Cancer Res. 2016, 76, 7265-7275. https://doi.org/10.1158/0008-5472.can-16-2032; Adhikary, G. et al., Carcinogenesis 2015, 36, 800-810. https://doi.org/10.1093/carcin/bgv064) containing 1% foetal calf serum (FCS), and 20,000 cells were plated into each upper chamber atop the Matrigel. The bottom chamber contained spheroid medium supplemented with 10% FCS and 0-100 μM of inhibitor. After incubation for 18 h in a 37° C. incubator, cells in the top chamber were removed with a swab and cells on the lower surface of the membrane were fixed with 4% paraformaldehyde and the nuclei were stained with 4′,6-diamidino-2-phenylindole. Cell number was counted in multiple fields (n=4) using a fluorescence microscope, normalized with respect to the number counted in the presence of vehicle only, and expressed as mean±standard deviation.

Plasma stability = format: in vitro ADME
TG3a = target: T1, TG3a (Homo sapiens, UniProt Q08188); experiment: Fluorescence isopeptidase activity assay (A101 FRET-quenched probe), isozyme selectivity; format: biochemical; details: normalized [I]/α
T1 construct: purchased Zedira
T1 sequence (Q08188 2-467 limits assumed): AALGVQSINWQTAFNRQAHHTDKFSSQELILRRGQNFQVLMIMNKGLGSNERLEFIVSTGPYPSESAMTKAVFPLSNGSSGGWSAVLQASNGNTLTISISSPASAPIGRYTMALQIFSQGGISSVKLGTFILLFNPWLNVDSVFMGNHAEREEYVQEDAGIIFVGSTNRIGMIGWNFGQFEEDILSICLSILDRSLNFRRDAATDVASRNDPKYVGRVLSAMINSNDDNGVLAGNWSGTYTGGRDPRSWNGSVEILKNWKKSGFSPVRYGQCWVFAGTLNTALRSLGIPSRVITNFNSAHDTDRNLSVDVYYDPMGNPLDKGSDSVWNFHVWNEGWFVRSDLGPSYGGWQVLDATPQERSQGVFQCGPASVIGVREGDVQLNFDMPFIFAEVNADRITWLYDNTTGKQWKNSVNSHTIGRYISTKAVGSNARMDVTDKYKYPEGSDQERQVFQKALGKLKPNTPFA
T1 sequence (Q08188 468-693 partner limits assumed): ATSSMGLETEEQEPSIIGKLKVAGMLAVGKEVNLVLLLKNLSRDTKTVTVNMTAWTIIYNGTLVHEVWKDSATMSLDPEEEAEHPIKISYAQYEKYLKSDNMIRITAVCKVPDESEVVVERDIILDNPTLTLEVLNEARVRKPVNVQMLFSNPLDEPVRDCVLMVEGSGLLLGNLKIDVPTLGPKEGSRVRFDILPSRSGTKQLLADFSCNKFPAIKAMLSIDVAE
Protocol: Fluorescence isopeptidase activity assay. The isopeptidase activity of pre-activated TG3a and FXIIIa (purchased from Zedira) was measured via a fluorescence-based assay as described (Kirily, R. et al., “Isopeptidase activity of human transglutaminase 2: disconnection from transamidation and characterization by kinetic parameters.” Amino Acids 2016, 48 (1), 31-40) using the commercially available peptidic FRET quenched probe A101. Briefly, the final concentration in the reaction mixture contained 50 mM Tris (pH 7.0), 10 mM CaCl2, 100 mM NaCl, 2.8 mM TCEP, 50 μM A101 and 14 mM H-Gly-OMe. The reaction was monitored at 25° C. using a BioTek Synergy 4 plate reader (Ex/Em: 318/413 nm). Enzymatic inhibition assays were run under Kitz and Wilson conditions (Kitz, R. and Wilson, I. B., “Esters of methanesulfonic acid as irreversible inhibitors of acetylcholinesterase.” J. Biol. Chem. 1962, 237, 3245-49), which were established for TG3a and FXIIIa at a substrate (A101) concentration of 50 μM using enzyme concentrations of 0.17 μM and 0.11 μM for TG3a and FXIIIa, respectively.

P-gp (MDR1) = experiment: MDCK-MDR1 permeability; format: in vitro ADME; details: dog, MDCK-MDR1

Row | SMILES | Protein Binding (Protein binding) [%] | Protein Binding Recovery (Protein binding) [%] | hepatocyte CLint [1] [µL/min/1e6 cells] | half-life [1] [h] | MDCK − MDR1 Papp (A→B) (MDCK − MDR1) | MDCK − MDR1 Papp (B→A) (MDCK − MDR1) | PAMPA −Log [Pe (cm/s)] [2] | EC50 (SCC-13 cells) [µM] | Plasma t½ (Plasma stability) [h] | inhibition of TG3a (TG3a) | efflux ratio (P-gp (MDR1)) | MDCK − MDR1 Efflux Ratio (MDCK − MDR1)
1 | C=CC(=O)NCCCC[C@H](NC(=O)Cc1ccccc1F)C(=O)N1CCN(C(=O)c2cccc3ccccc23)CC1 [Inhibitor 72, (S)-N-(6-(4-(1-naphthoyl)piperazin-1-yl)-5-(2-(2-fluorophenyl)acetamido)-6-oxohexyl)acrylamide] | 84 | 86 | 2.37 | 9.73 | 0.29 10^−6 cm/s | 18.2 10^−6 cm/s | 5.44 | 77 | 17.92 | none of these inhibitors showed any detectable inhibition |  | 
2 | C=CC(=O)NCCCC[C@H](NC(=O)Cc1ccccc1C)C(=O)N1CCN(C(=O)c2cccc3ccccc23)CC1 [Inhibitor 74, (S)-N-(6-(4-(1-naphthoyl)piperazin-1-yl)-5-(2-(2-methylphenyl)acetamido)-6-oxohexyl)acrylamide] | 85 | 93 | 5.58 | 4.18 | 0.32 10^−6 cm/s | 16.5 10^−6 cm/s | 5.03 | 119 ± 5 | 9.47 | none of these inhibitors showed any detectable inhibition | > 50 | 51.6
3 | C=CC(=O)NCCCC[C@H](NC(=O)OCc1ccccc1)C(=O)N1CCN(C(=O)c2cccc3ccccc23)CC1 [AA9, reference compound] |  |  |  |  |  |  |  |  |  | none of these inhibitors showed any detectable inhibition |  | 
